Experiments:
[1] = test system: rat streptozotocin-induced model for diabetes; experiment: Evaluation of Anti-Diabetic Effect in In Vivo Model of Diabetes (chronic dosing, STZ rats)
Procedure: (§1) 250-350 g male Sprague-Dawley rats from appropriate animal resources were used. Type I diabetes was induced by a single injection, (intraperitoneally, intravenously or intramuscularly) of 50-100 mg/kg of streptozotocin (STZ, Sigma Chemicals, St. Louis, Mo. or VWR) freshly dissolved in sodium citrate (0.01 M, pH 4.5). Sham animals were given either saline or same vehicle injection. Following a wait time of about two days, inducement of diabetes was confirmed in STZ-injected rats by measuring the plasma glucose concentrations in blood samples from the tail vein after a fast of 6 hours. The glucose level was assayed using a mini glucose monitor (kit for AlphaTRAK 2 meter, available from Abbott Laboratories). Screening for hyperglycemia in STZ-injected animals was done, with only animals with a final blood glucose level ≧300 mg/dl being selected for the study. Glucose levels in the sham animals remained normal. Other parameters (water intake, food intake, and bodyweight) were monitored before the treatment with a test compound and after the cessation of the treatment.
A Compound provided herein is tested in the rat STZ model of diabetes by chronic administration of the Compound for at least 7 days to evaluate analgesic and antidiabetic effects of the Compound. The analgesic effect of the Compound can be evaluated using behavioral tests (e.g., von Frey test, plantar test, and paw pressure test described herein below). The anti-diabetic effect of the Compound can be evaluated based on the improvement in the glucose level, food intake, water intake in the compound treated group compared to the untreated vehicle group and the normal, non-diabetic sham control group.
Diabetes mellitus was induced in rats as described in paragraph [00327] above.
The baseline glucose levels, daily food and water intake and behavioral tests (von Frey, paw pressure and plantar tests) were measured for each animal once weekly for 28 weeks, and once every 2-4 weeks for an additional 28-30 weeks. At a selected week (started from week 6) for a compound test, diabetic rats were divided into two test groups: a vehicle control group and a test compound treated group (n=10 each group). A sham group (saline only without STZ i.p. injection, n=10) was added as a normal, non-diabetic control group. To minimize animal stress associated with repeated daily handling, the compound treated diabetic group of animals received the test compound at a daily dose of 60 mg/kg in their drinking water containing 2% PEG600 and 1% glycofurol (the test compound concentration in the drinking water was based on the individual animal's average daily water consumption as determined the pre-dosing period, which averaged 0.1-0.11 mg/ml). The vehicle control group received drinking water containing 2% PEG600 and 1% glycofurol without the test compound. The treatment continued for 9 days. On day 10 drinking water with test compound or vehicle (2% PEG600 and 1% glycofurol) was replaced with plain drinking water in all groups. The monitoring of glucose levels, food and water intake as well as behavior tests continued for additional 28-30 weeks. […] A gradual, significant reversal of up to 90% of mechanical allodynia (von Frey test) was achieved after 9 days of treatment.
FIGS. 1-3 show food intake, glucose level, and water intake, respectively, for the vehicle control group, the test compound treated group (compound 49, 60 mg/kg/day), and the sham group. […] The significant reduction of food intake, glucose level, and water intake of the compound treated group compared to the vehicle control group continues through week 52. […] Since the standard deviation in the sham groups are less than 5%, no error bars are shown.

[2] = test system: streptozotocin (STZ)-induced diabetic model; experiment: Streptozotocin (STZ)-Induced Model of Diabetic Neuropathy, behavioral tests; assay type: in vivo, male Sprague-Dawley rats; details: 30 mg/kg, measured 30 minutes post dose
Procedure: as §1, with “The glucose level was assayed using a mini glucose monitor (kit for AlphaTRAK 2 meter, available from Abbott Laboratories). Screening for hyperglycemia in STZ-injected animals was done, with only animals with a final blood glucose level ≧300 mg/dl being selected for the study. Glucose levels in the sham animals remained normal.” left out
The analgesic effect of the test compound was expressed as a percent recovery (% Recovery) relative to the sham control group baseline and calculated according to the formula: […]
Rats were placed on the glass surface of a thermal testing apparatus (Model 336, IITC/Life Science Instruments, Woodland Hills, Calif.) and were allowed to acclimate for 10 min before testing on the glass surface at room temperature. […] The paw withdrawal latency was recorded by a digital timer. The thermal threshold was determined as the mean withdrawal latency from two to three consecutive trials of both hindpaws. […]

[3] = diabetic rats, 60 mg/kg/day in drinking water for 9 days
[4] = measured on day 11, two days after compound withdrawal

NC(=O)CNCCCc1cc(Cl)ccc1Oc1cc(F)c(S(=O)(=O)Nc2cscn2)cc1Cl [Compound 49, 2-((3-(5-chloro-2-(2-chloro-5-fluoro-4-(N-(thiazol-4-yl)sulfamoyl)phenoxy)phenyl)propyl)amino)acetamide]
food intake ([1]; diabetic rats, 60 mg/kg/day for 9 days, compared to vehicle control group, continues through week 52 (FIG. 1)): significantly reduced | glucose level ([1]; diabetic rats, 60 mg/kg/day for 9 days, compared to vehicle control group, continues through week 52 (FIG. 2)): significantly reduced | water intake ([1]; diabetic rats, 60 mg/kg/day for 9 days, compared to vehicle control group, continues through week 52 (FIG. 3)): significantly reduced | mechanical pain (paw pressure test) [1, 3]: rapid and sustained improvement | thermal pain (plantar test) [1, 3]: rapid and sustained improvement | tachyphylaxis ([1]; diabetic rats, 60 mg/kg/day in drinking water for 9 days, paw pressure and plantar tests): no tachyphylaxis | reversal of mechanical allodynia (von Frey test) ([1]; diabetic rats, 60 mg/kg/day in drinking water, after 9 days of treatment): up to 90% | time allodynia threshold (von Frey test) stayed significantly above the pretreatment level baseline after compound withdrawal ([1]; diabetic rats, after 9 days of 60 mg/kg/day): up to 5 days | general appearance and/or health ([1]; diabetic rats, after treatment with 60 mg/kg/day stopped on day 9): improvements in general appearance and/or health | paw pressure test threshold after compound withdrawal [1, 4]: returned to the pretreatment baseline | plantar test threshold after compound withdrawal [1, 4]: returned to the pretreatment baseline | effect in the tactile allodynia test [2]: no significant effect

— patent US20160221974A1, “SODIUM CHANNEL MODULATORS FOR THE TREATMENT OF PAIN AND DIABETES” (CHROMOCELL CORPORATION, priority 2013, published 2016)
